Test results taken from PubChem BioAssay AID1963851 (Molecular Pharmacology Branch, DTP, NCI, 2024).

System: 188146-221-R-J1-PDC complex spheroid viability
Assay: Anticancer human tumor 188146-221-R-J1-PDC patient-derived colon adenocarcinoma cell line growth inhibition [POLQ]
Details: for IC50: curve of first compound; for viability, T/C: stronger effect = lower value
Method in brief: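 Patient-derived tumour cells were co-cultured with HUVEC and mesenchymal stem cells as multicellular spheroids at 37 °C. They were treated with POLQ inhibitors (novobiocin, ART-558, RP6685) alone or combined with other agents. Top concentrations were at or near clinical Cmax (otherwise 10 microM; SN-38 at 1 microM), decreasing in half-log steps.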

[1] = second compound 0.0316 µM, first compound 0.0316 µM
[2] = second compound 0.0316 µM, first compound 0.1 µM
[3] = second compound 0.0316 µM, first compound 0.316 µM
[4] = second compound 0.0316 µM, first compound 1 µM
[5] = second compound 0.0316 µM, first compound 3.16 µM
[6] = second compound 0.0316 µM, first compound 10 µM
[7] = second compound 0.1 µM, first compound 0.0316 µM
[8] = second compound 0.1 µM, first compound 0.1 µM
[9] = second compound 0.1 µM, first compound 0.316 µM
[10] = second compound 0.1 µM, first compound 1 µM
[11] = second compound 0.1 µM, first compound 3.16 µM
[12] = second compound 0.1 µM, first compound 10 µM
[13] = second compound 0.316 µM, first compound 0.0316 µM
[14] = second compound 0.316 µM, first compound 0.1 µM
[15] = second compound 0.316 µM, first compound 0.316 µM
[16] = second compound 0.316 µM, first compound 1 µM
[17] = second compound 0.316 µM, first compound 3.16 µM
[18] = second compound 0.316 µM, first compound 10 µM
[19] = second compound 1 µM, first compound 0.0316 µM
[20] = second compound 1 µM, first compound 0.1 µM
[21] = second compound 1 µM, first compound 0.316 µM
[22] = second compound 1 µM, first compound 1 µM
[23] = second compound 1 µM, first compound 3.16 µM
[24] = second compound 1 µM, first compound 10 µM
[25] = second compound 3.16 µM, first compound 0.0316 µM
[26] = second compound 3.16 µM, first compound 0.1 µM
[27] = second compound 3.16 µM, first compound 0.316 µM
[28] = second compound 3.16 µM, first compound 1 µM
[29] = second compound 3.16 µM, first compound 3.16 µM
[30] = second compound 3.16 µM, first compound 10 µM
[31] = second compound 10 µM, first compound 0.0316 µM
[32] = second compound 10 µM, first compound 0.1 µM
[33] = second compound 10 µM, first compound 0.316 µM
[34] = second compound 10 µM, first compound 1 µM
[35] = second compound 10 µM, first compound 3.16 µM
[36] = second compound 10 µM, first compound 10 µM
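Further: spheroids exposed to compounds for seven days.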
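Wherever viability, T/C is given: 100% = DMSO vehicle control viability.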

COc1cc2cc(C(=O)CCC(=O)O)sc2cc1OC + COC1C(OC(N)=O)C(O)C(Oc2ccc3c(O)c(NC(=O)c4ccc(O)c(CC=C(C)C)c4)c(=O)oc3c2C)OC1(C)C
IC50 (second compound 0.0316 µM): > 10 µM
IC50 (second compound 0.1 µM): > 10 µM
IC50 (second compound 0.316 µM): > 10 µM
IC50 (second compound 1 µM): > 10 µM
IC50 (second compound 3.16 µM): > 10 µM
IC50 (second compound 10 µM): > 10 µM
viability, T/C [1]: 108%
viability, T/C [2]: 107%
viability, T/C [3]: 107%
viability, T/C [4]: 111%
viability, T/C [5]: 107%
viability, T/C [6]: 98%
viability, T/C [7]: 105%
viability, T/C [8]: 98.3%
viability, T/C [9]: 99.9%
viability, T/C [10]: 99.8%
viability, T/C [11]: 92.9%
viability, T/C [12]: 98.3%
viability, T/C [13]: 103%
viability, T/C [14]: 107%
viability, T/C [15]: 99.7%
viability, T/C [16]: 94.9%
viability, T/C [17]: 95.6%
viability, T/C [18]: 93%
viability, T/C [19]: 101%
viability, T/C [20]: 96.8%
viability, T/C [21]: 83.6%
viability, T/C [22]: 100%
viability, T/C [23]: 101%
viability, T/C [24]: 101%
viability, T/C [25]: 102%
viability, T/C [26]: 94.1%
viability, T/C [27]: 95.7%
viability, T/C [28]: 84.3%
viability, T/C [29]: 114%
viability, T/C [30]: 108%
viability, T/C [31]: 105%
viability, T/C [32]: 92%
viability, T/C [33]: 108%
viability, T/C [34]: 101%
viability, T/C [35]: 111%
viability, T/C [36]: 109%

COc1cccc(OCCCN)c1-c1cc(Nc2cnc(C#N)cn2)n[nH]1 + COC1C(OC(N)=O)C(O)C(Oc2ccc3c(O)c(NC(=O)c4ccc(O)c(CC=C(C)C)c4)c(=O)oc3c2C)OC1(C)C
IC50 (second compound 0.0316 µM): 0.0287 µM
IC50 (second compound 0.1 µM): 0.035 µM
IC50 (second compound 0.316 µM): 0.0394 µM
IC50 (second compound 1 µM): 0.0305 µM
IC50 (second compound 3.16 µM): 0.0276 µM
IC50 (second compound 10 µM): 0.0222 µM
viability, T/C (second compound 0.0316 µM, first compound 0.00316 µM): 105%
viability, T/C (second compound 0.0316 µM, first compound 0.01 µM): 77.3%
viability, T/C [1]: 51.3%
viability, T/C [2]: 20.1%
viability, T/C [3]: 13%
viability, T/C [4]: 10.6%
viability, T/C (second compound 0.1 µM, first compound 0.00316 µM): 107%
viability, T/C (second compound 0.1 µM, first compound 0.01 µM): 96.6%
viability, T/C [7]: 51.9%
viability, T/C [8]: 20.7%
viability, T/C [9]: 12.7%
viability, T/C [10]: 9.49%
viability, T/C (second compound 0.316 µM, first compound 0.00316 µM): 97%
viability, T/C (second compound 0.316 µM, first compound 0.01 µM): 80.6%
viability, T/C [13]: 60.2%
viability, T/C [14]: 18%
viability, T/C [15]: 10.6%
viability, T/C [16]: 9.85%
viability, T/C (second compound 1 µM, first compound 0.00316 µM): 106%
viability, T/C (second compound 1 µM, first compound 0.01 µM): 90.1%
viability, T/C [19]: 47.6%
viability, T/C [20]: 21%
viability, T/C [21]: 12%
viability, T/C [22]: 9.09%
viability, T/C (second compound 3.16 µM, first compound 0.00316 µM): 89.5%
viability, T/C (second compound 3.16 µM, first compound 0.01 µM): 79.8%
viability, T/C [25]: 45.8%
viability, T/C [26]: 18.4%
viability, T/C [27]: 12.5%
viability, T/C [28]: 9.13%
viability, T/C (second compound 10 µM, first compound 0.00316 µM): 103%
viability, T/C (second compound 10 µM, first compound 0.01 µM): 83.1%
viability, T/C [31]: 35.1%
viability, T/C [32]: 15.2%
viability, T/C [33]: 11.4%
viability, T/C [34]: 9.97%

CCc1cc2c(N3CCc4c(cc(Cn5ccnc5)cc4-c4cn(C)nc4C(F)(F)F)C3=O)ccnc2c(OC)n1 + Cc1cccc(N(C)C(=O)C2C(O)CCN2c2nc(C)cc(C(F)(F)F)c2C#N)c1
IC50 (second compound 0.0316 µM): 9.01 µM
IC50 (second compound 0.1 µM): > 10 µM
IC50 (second compound 0.316 µM): 8.88 µM
IC50 (second compound 1 µM): 7.87 µM
IC50 (second compound 3.16 µM): 8.27 µM
IC50 (second compound 10 µM): 5.92 µM
viability, T/C [1]: 90.5%
viability, T/C [2]: 92%
viability, T/C [3]: 93.5%
viability, T/C [4]: 102%
viability, T/C [5]: 67.8%
viability, T/C [6]: 48.2%
viability, T/C [7]: 117%
viability, T/C [8]: 78.8%
viability, T/C [9]: 97.8%
viability, T/C [10]: 90.8%
viability, T/C [11]: 77.8%
viability, T/C [12]: 49.8%
viability, T/C [13]: 107%
viability, T/C [14]: 114%
viability, T/C [15]: 85.2%
viability, T/C [16]: 78.6%
viability, T/C [17]: 66.5%
viability, T/C [18]: 47.1%
viability, T/C [19]: 107%
viability, T/C [20]: 98.2%
viability, T/C [21]: 91.5%
viability, T/C [22]: 105%
viability, T/C [23]: 71%
viability, T/C [24]: 44.4%
viability, T/C [25]: 90.1%
viability, T/C [26]: 91.4%
viability, T/C [27]: 91.6%
viability, T/C [28]: 81.7%
viability, T/C [29]: 66.6%
viability, T/C [30]: 46.7%
viability, T/C [31]: 92.5%
viability, T/C [32]: 82.5%
viability, T/C [33]: 74.1%
viability, T/C [34]: 69.6%
viability, T/C [35]: 61.2%
viability, T/C [36]: 40.7%
